Data taken from US20120029083A1, “POLYMORPHIC FORMS OF ALISKIREN HEMIFUMARATE AND PROCESS FOR PREPARATION THEREOF” (Teva Pharmaceutical Industries, Ltd., priority 2007, published 2012).
Where two headings read alike, the source gives them in different places.

Settings: pressed at 2 tons for 1 minute
Protocol: ARL X-ray powder diffractometer model X′TRA-030, Peltier detector, round standard aluminum sample holder with round zero background quartz plate (or silicon plate in the case of Form XIV) was used. The cathode is CuKα radiation, λ=1.5418 Å. Scanning parameters: Range: 2-40°2θ, continuous Scan, Rate: 3 deg/min. The accuracy of peak positions is defined as +/−0.2° due to experimental differences like instrumentations, and sample preparations.
The formulation was mixed and pressed to a tablet. The applied pressure was 2 tons for 1 minute.
The formulation is mixed and pressed to a tablet. The applied pressure is 2 tons for 1 minute.

COCCCOc1cc(C[C@@H](C[C@H](N)[C@@H](O)C[C@H](C(=O)NCC(C)(C)C(N)=O)C(C)C)C(C)C)ccc1OC.COCCCOc1cc(C[C@@H](C[C@H](N)[C@@H](O)C[C@H](C(=O)NCC(C)(C)C(N)=O)C(C)C)C(C)C)ccc1OC.O=C(O)/C=C/C(=O)O [amorphous aliskiren hemifumarate, (2S,4S,5S,7S)-N-(2-Carbamoyl-2-methylpropyl)-5-amino-4-hydroxy-2,7-diisopropyl-8-[4-methoxy-3-(3-methoxypropoxy)phenyl]-octanamide hemifumarate]
conversion of amorphous form to a crystalline phase in pressed tablet (XRPD) (formulation Example 67 (microcrystalline cellulose, PVP, crosspovidone, aerosil 200, Mg stearate)): No conversion of the amorphous Aliskiren to a crystalline phase | conversion of amorphous form to a crystalline phase in pressed tablet (XRPD) (formulation Example 68 (lactose monohydrate, PVP, crosspovidone, Mg stearate), written in present tense): No conversion of the amorphous Aliskiren to a crystalline phase
